Active and inactive are the calls of the source. Bounds are passed on as bounds.

These results are taken from ChEMBL document CHEMBL4765487, “From a Designer Drug to the Discovery of Selective Cannabinoid Type 2 Receptor Agonists with Favorable Pharmacokinetic Profiles for the Treatment of Systemic Sclerosis” (J Med Chem, 2021).

For data set [1], the system named is Mus musculus. Description: Antifibrotic activity in BALB/c mouse model of BLM-induced systemic sclerosis assessed as reduction in TNF-alpha mRNA expression at 1 to 5 mg/kg, sc dosed once daily for 4 weeks by quantitative real-time PCR analysis. The data set is classed as functional, organism-based. The settings on record: dose 1-5 mg/kg. (In general: Real-time PCR tracks product formation cycle by cycle.)

Data set [2] can be described thus: Clearance in BALB/c mouse at 5 mg/kg, po measured during 0.083 to 24 hrs post dose by LC-MS/MS analysis. The data set is classed as ADME, organism-based. The settings on record: in vivo, time 0.083-24 hrs.
For data set [3], the system named is Mus musculus. Description: Antifibrotic activity in BALB/c mouse model of BLM-induced systemic sclerosis assessed as reduction in alpha-SMA expression at 1 to 5 mg/kg, sc dosed once daily for 4 weeks by immunohistochemical analysis. The data set is classed as functional, organism-based. The settings on record: dose 1-5 mg/kg.
A short description of data set [4]: Half life in BALB/c mouse at 1 mg/kg, iv measured during 0.083 to 24 hrs post dose by LC-MS/MS analysis. The class given is ADME, organism-based. The settings on record: in vivo, time 0.083-24 hrs.
In data set [5] the target is Cannabinoid receptor 2 (Homo sapiens, UniProt P34972). Description: Agonist activity at human CB2 receptor expressed in HEK293 cells assessed as inhibition of forskolin-induced cAMP production incubated for 15 mins by cAMP HTRF assay. The data set is classed as functional, cell-based. For orientation: Changes in cAMP serve as a functional read-out for many G protein-coupled receptors.

Data set [6] can be described thus: Toxicity in BALB/c mouse model of BLM-induced systemic sclerosis assessed as effect on body weight at 1 to 5 mg/kg, sc dosed once daily for 4 weeks. The class given is organism-based. Particulars: in vivo, 672 h, dose 1-5 mg/kg.
Data set [7] is described as follows: Volume of distribution in BALB/c mouse at 5 mg/kg, po measured during 0.083 to 24 hrs post dose by LC-MS/MS analysis. The class given is ADME, organism-based. The settings on record: in vivo, time 0.083-24 hrs.
Data set [8] is described as follows: Oral bioavailability in BALB/c mouse at 5 mg/kg measured during 0.083 to 24 hrs post dose by LC-MS/MS analysis. The data set is classed as ADME, organism-based. Particulars: in vivo, time 0.083-24 hrs.
Data set [9] in a line: AUC (0 to infinity) in BALB/c mouse at 1 mg/kg, iv measured during 0.083 to 24 hrs post dose by LC-MS/MS analysis. More on the design: route intravenous, time lower 0.083 hrs, dose 1 mg/kg, time upper 24 hrs. The data set is classed as ADME, organism-based. Particulars: in vivo.
Data set [10] deals with Prostaglandin E2 receptor EP4 subtype (Homo sapiens) (UniProt P35408). Description: Antagonist activity at EP4 (unknown origin) at 10 uM.
Data set [11] addresses T1, Probable G-protein coupled receptor 132 (Homo sapiens) (UniProt Q9UNW8).
T1 sequence (whole entry): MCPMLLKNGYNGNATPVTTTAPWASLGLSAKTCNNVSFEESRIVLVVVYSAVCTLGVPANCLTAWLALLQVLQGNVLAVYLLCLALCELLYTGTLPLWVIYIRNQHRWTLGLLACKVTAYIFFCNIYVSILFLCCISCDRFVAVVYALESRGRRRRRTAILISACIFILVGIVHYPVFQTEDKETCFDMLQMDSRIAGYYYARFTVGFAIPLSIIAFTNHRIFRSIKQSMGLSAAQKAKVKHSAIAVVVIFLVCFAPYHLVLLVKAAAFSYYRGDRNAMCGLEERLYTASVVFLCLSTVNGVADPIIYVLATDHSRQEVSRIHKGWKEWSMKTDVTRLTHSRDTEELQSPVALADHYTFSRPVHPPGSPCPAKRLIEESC
Description: Antagonist activity at GPR132 (unknown origin) at 10 uM.

The species entered for data set [12] is Homo sapiens. Description: Selectivity index, ratio of EC50 for agonist activity at human CB1 receptor expressing CHO cells co-expressing Galpha16 by calcium mobilization assay to EC50 for agonist activity at human CB2 receptor expressing CHO cells co-expressing Galpha16 by calcium mobilization assay. (In general: Calcium flux is commonly read through the fluorescence of an indicator in the cells.)

A short description of data set [13]: in vitro. Particulars: human, liver.
Data set [14] deals with T2, Glucose-dependent insulinotropic receptor (Homo sapiens) (UniProt Q8TDV5).
T2 sequence (whole entry): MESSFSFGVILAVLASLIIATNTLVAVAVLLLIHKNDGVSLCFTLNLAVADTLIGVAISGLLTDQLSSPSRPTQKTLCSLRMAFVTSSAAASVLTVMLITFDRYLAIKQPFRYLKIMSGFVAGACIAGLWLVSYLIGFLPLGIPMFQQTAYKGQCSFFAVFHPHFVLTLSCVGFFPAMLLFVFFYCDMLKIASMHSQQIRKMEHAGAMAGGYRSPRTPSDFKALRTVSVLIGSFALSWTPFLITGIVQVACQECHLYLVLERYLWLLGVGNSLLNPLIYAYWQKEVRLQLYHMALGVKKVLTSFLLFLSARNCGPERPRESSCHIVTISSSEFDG
Description: Agonist activity at GPR119 (unknown origin) at 10 uM.

Prostaglandin E2 receptor EP4 subtype (Homo sapiens), sequence (P35408 whole entry): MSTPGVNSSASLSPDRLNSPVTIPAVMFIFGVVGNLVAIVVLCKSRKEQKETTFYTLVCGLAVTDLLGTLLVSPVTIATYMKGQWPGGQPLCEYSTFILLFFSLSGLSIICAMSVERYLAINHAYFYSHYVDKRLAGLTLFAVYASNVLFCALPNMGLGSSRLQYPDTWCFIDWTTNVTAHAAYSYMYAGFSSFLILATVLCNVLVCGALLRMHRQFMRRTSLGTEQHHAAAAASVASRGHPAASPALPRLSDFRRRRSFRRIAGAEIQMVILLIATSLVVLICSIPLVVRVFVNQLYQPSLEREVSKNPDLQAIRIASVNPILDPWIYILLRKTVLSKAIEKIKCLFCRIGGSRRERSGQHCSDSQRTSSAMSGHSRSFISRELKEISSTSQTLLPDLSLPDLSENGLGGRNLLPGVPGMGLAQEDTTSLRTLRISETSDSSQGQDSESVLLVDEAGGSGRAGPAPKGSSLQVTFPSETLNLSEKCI
Cannabinoid receptor 2, sequence (P34972 whole entry): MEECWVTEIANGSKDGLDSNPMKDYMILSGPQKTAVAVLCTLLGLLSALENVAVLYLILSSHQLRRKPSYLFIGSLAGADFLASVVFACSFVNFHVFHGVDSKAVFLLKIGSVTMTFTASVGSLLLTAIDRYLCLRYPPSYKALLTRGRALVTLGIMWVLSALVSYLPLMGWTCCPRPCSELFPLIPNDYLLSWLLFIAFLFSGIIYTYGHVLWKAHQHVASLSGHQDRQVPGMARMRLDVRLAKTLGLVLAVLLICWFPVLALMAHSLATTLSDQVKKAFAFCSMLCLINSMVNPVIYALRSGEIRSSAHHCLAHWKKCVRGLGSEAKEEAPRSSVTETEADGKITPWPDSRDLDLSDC

On to `CC(C)(CO)NC(=O)c1cc(C(C)(C)C)n(-c2ccc(C(F)(F)F)cn2)n1`, for which the outcome in [1] and in [3] was Active. Also, the CL/F (commonly the apparent clearance, not corrected for the fraction that reaches the circulation) in data set [2] is 51.7 mL/min/kg. For the same compound, in [4], the half-life (commonly the time needed for the level to fall by half in the phase considered) is 1.32 h. The EC50 (commonly the midpoint of the concentration-response curve) in data set [5] turned out to be 10.7 nM. Also, the Activity entry in data set [6] is “Non-Toxic”. Moreover, in data set [7], the Vd worked out at 9.2 L/kg. The bioavailability (as a rule, the share of a dose that reaches the circulation, judged against a reference dose that is usually intravenous) in data set [8] came to 79.5%. For the same compound, in [9], the AUC(0-inf) (usually total exposure, with the tail of the curve extrapolated) was 422 ng·h/mL. Also, the result in data set [10], in data set [11] and in data set [14] was inactive. The Ratio EC50 in data set [12] was more than 100. For the same compound, the CLint scaled (in general, the rate of metabolic loss divided by the concentration) at 1 µM in data set [13] was 11.1 mL/min/kg.
